In patent US10590140B2, “Tetrahydropyrimidodiazepine and dihydropyridodiazepine compounds for treating pain and pain related conditions” (ESTEVE PHARMACEUTICALS, S.A., priority 2016, dated 2020) one finds Ki data, which are given here for 22 compounds.

Test [1] addresses human norepinephrine transporter (NET) (Homo sapiens (Human), UniProt P23975). In words: Binding assay to human norepinephrine transporter (NET) ([3H]-Nisoxetin). The note with it: Table 2, dual compounds; [3H]-Nisoxetin binding. As to the method:
Binding Assay to Human Norepinephrine Transporter (NET).
Human norepinephrine transporter (NET) enriched membranes (5 μg) were incubated with 5 nM of radiolabeled [3H]-Nisoxetin in assay buffer containing 50 mM Tris-HCl, 120 mM NaCl, 5 mM KCl, pH 7.4.
NSB (non specific binding) was measured by adding 1 μM. After 60 min incubation at 4° C., binding reaction was terminated by filtering through Multiscreen GF/C (Millipore) presoaked in 0.5% polyethyleneimine in Vacuum Manifold Station, followed by 3 washes with ice-cold filtration buffer containing 50 mM Tris-HCl, 0.9% NaCl, pH 7.4.
Filter plates were dried at 60° C. for 1 hour and 30 μl of scintillation cocktail were added to each well before radioactivity reading.

Test [2] has as its target human α2δ-1 subunit of Cav2.2 calcium channel (Homo sapiens (Human), UniProt P54289). The test is described as follows: Binding assay to human α2δ-1 subunit of Cav2.2 calcium channel ([3H]-Gabapentin). The conditions noted are these: read-out: Ki (nM) α2δ-1. The method in brief: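 Radioactivity on dried GF/C filters quantified by scintillation after filtration and three cold Tris-HCl (pH 7.4) washes. Incubation ran 60 min at 27° C with [3H]-gabapentin; 10 μM pregabalin gave nonspecific binding.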

The mark [3] stands for this setting: Table 2, dual compounds, [3H]-Gabapentin binding.
The mark [4] stands for this setting: binding to α2δ-1, [3H]-Gabapentin.

Where two headings read alike, the source gives them in different places.

Sequence of human α2δ-1 subunit of Cav2.2 calcium channel (P54289 25-1103): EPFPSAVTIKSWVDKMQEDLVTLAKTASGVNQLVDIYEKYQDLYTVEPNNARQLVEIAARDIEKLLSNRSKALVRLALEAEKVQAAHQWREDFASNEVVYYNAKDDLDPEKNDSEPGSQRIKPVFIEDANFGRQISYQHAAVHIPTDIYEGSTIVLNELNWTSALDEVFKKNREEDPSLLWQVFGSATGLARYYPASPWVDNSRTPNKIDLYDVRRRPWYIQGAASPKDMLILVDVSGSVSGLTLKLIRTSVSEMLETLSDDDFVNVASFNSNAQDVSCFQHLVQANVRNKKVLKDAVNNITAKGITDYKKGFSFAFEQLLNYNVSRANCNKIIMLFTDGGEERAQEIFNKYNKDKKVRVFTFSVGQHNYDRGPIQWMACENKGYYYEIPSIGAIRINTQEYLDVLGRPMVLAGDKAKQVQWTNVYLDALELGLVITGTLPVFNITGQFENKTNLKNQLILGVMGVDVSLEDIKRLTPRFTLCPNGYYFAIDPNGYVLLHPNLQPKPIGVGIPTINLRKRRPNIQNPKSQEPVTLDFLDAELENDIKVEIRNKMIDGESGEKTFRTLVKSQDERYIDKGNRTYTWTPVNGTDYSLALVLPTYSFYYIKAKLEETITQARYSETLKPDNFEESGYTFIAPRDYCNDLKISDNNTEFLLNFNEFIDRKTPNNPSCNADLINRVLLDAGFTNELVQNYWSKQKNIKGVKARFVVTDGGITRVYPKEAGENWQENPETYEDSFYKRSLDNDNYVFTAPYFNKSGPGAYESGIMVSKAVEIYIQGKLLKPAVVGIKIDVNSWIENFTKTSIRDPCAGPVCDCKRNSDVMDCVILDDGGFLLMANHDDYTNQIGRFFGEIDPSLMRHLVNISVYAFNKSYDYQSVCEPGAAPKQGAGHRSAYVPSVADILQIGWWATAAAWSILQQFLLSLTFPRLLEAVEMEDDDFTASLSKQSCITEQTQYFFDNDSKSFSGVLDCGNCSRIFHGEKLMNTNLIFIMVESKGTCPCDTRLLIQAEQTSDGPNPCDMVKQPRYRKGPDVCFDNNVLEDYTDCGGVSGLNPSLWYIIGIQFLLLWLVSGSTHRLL
Sequence of human norepinephrine transporter (NET) (P23975 whole entry): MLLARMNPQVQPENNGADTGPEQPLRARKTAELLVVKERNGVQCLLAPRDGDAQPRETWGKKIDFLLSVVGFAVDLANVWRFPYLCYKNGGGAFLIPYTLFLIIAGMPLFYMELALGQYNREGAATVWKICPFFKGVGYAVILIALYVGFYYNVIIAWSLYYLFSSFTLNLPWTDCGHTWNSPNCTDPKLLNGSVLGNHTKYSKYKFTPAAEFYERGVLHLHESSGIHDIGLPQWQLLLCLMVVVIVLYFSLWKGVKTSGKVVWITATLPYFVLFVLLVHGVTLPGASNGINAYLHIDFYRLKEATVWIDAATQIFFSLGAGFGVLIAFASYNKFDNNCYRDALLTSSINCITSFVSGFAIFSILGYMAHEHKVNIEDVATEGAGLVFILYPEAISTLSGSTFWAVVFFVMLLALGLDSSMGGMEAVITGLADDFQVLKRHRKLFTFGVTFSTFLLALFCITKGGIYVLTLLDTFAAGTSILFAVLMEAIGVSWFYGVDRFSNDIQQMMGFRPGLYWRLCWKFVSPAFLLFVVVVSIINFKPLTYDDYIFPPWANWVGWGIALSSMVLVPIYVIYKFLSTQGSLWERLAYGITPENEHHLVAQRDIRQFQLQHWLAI

Usually Ki stands for the dissociation constant of the complex between target and ligand, obtained from inhibition or displacement. Take `CCNc1ncc2c(n1)N(C)CCN(c1cccc(OC(CNC)c3ccccc3)c1)C2=O` (stereo not drawn) [Example 154, 2-(ethylamino)-9-methyl-6-(3-(2-(methylamino)-1-phenylethoxy)phenyl)-6,7,8,9-tetrahydro-5H-pyrimido[4,5-e][1,4]diazepin-5-one]: the Ki in test [1] was 100 to 500 nM; in test [2] (setting [3]) it was 500 to 3000 nM; in test [2] (setting [4]) it was 500 to 3000 nM.

On to `CCNc1ncc2c(n1)N(C)CCN(c1ccc(OC(CNC)c3ccccc3)cc1)C2=O` (stereo not drawn) [Example 159, 2-(ethylamino)-9-methyl-6-(4-(2-(methylamino)-1-phenylethoxy)phenyl)-6,7,8,9-tetrahydro-5H-pyrimido[4,5-e][1,4]diazepin-5-one], for which the Ki is > 1000 nM in test [1], > 3000 nM in test [2] (setting [3]) and > 3000 nM in test [2] (setting [4]).

On to `CNCCC(OCc1cccc(N2CCN(C)c3nc(SC)ncc3C2=O)c1)c1ccccc1` (stereo not drawn) [Example 163, 9-methyl-6-(3-((3-(methylamino)-1-phenylpropoxy)methyl)phenyl)-2-(methylthio)-6,7,8,9-tetrahydro-5H-pyrimido[4,5-e][1,4]diazepin-5-one], for which the values for the Ki in test [1], in test [2] (setting [3]) and in test [2] (setting [4]) were 100 to 500 nM, 500 to 3000 nM and 500 to 3000 nM, respectively.

Turning to `CNCC[C@@H](OCc1cccc(N2CCN(C)c3nc(SC)ncc3C2=O)c1)c1ccccc1` [Example 164, (R)-9-methyl-6-(3-((3-(methylamino)-1-phenylpropoxy)methyl)phenyl)-2-(methylthio)-6,7,8,9-tetrahydro-5H-pyrimido[4,5-e][1,4]diazepin-5-one], the Ki in test [1], in test [2] (setting [3]) and in test [2] (setting [4]) was 100 to 500 nM throughout.

For `CNCC[C@H](OCc1cccc(N2CCN(C)c3nc(SC)ncc3C2=O)c1)c1ccccc1` [Example 165, (S)-9-methyl-6-(3-((3-(methylamino)-1-phenylpropoxy)methyl)phenyl)-2-(methylthio)-6,7,8,9-tetrahydro-5H-pyrimido[4,5-e][1,4]diazepin-5-one], the Ki in test [1] was 100 to 500 nM; in test [2] (setting [3]), > 3000 nM; in test [2] (setting [4]), > 3000 nM.

As to `CCNc1ncc2c(n1)N(C)CCN(c1cccc(COCC(NC)c3ccccc3)c1)C2=O` (stereo not drawn) [Example 166, 2-(ethylamino)-9-methyl-6-(3-((2-(methylamino)-2-phenylethoxy)methyl)phenyl)-6,7,8,9-tetrahydro-5H-pyrimido[4,5-e][1,4]diazepin-5-one], the figures for the Ki in test [1], in test [2] (setting [3]) and in test [2] (setting [4]) were 500 to 1000 nM, 500 to 3000 nM and > 3000 nM, respectively.

Turning to `CNC(COCc1cccc(N2CCN(C)c3nc(SC)ncc3C2=O)c1)c1ccccc1` (stereo not drawn) [Example 167, 9-methyl-6-(3-((2-(methylamino)-2-phenylethoxy)methyl)phenyl)-2-(methylthio)-6,7,8,9-tetrahydro-5H-pyrimido[4,5-e][1,4]diazepin-5-one], the results for the inhibitory constant (Ki) in test [1], in test [2] (setting [3]) and in test [2] (setting [4]) were > 1000 nM, > 3000 nM and > 3000 nM, respectively.

In the case of `CCNc1ncc2c(n1)N(C)CCN(c1cccc(C(C)(C)CNC)c1)C2=O` [Example 173, 2-(ethylamino)-9-methyl-6-(3-(2-methyl-1-(methylamino)propan-2-yl)phenyl)-6,7,8,9-tetrahydro-5H-pyrimido[4,5-e][1,4]diazepin-5-one], the Ki was > 1000 nM in test [1], 500 to 3000 nM in test [2] (setting [3]) and 500 to 3000 nM in test [2] (setting [4]).

In the case of `CCNc1ncc2c(n1)N(C)CCN(c1cccc(COC3(c4ccccc4)CCNCC3)c1)C2=O` [Example 176, 2-(ethylamino)-9-methyl-6-(3-(((4-phenylpiperidin-4-yl)oxy)methyl)phenyl)-6,7,8,9-tetrahydro-5H-pyrimido[4,5-e][1,4]diazepin-5-one], the inhibition constant (Ki) was > 1000 nM in test [1], 500 to 3000 nM in test [2] (setting [3]) and 500 to 3000 nM in test [2] (setting [4]).

Take `CSc1ncc2c(n1)N(C)CCN(c1cccc(COC3(c4ccccc4)CCNCC3)c1)C2=O` [Example 179, 9-methyl-2-(methylthio)-6-(3-(((4-phenylpiperidin-4-yl)oxy)methyl)phenyl)-6,7,8,9-tetrahydro-5H-pyrimido[4,5-e][1,4]diazepin-5-one]: the inhibition constant (Ki) was > 1000 nM in test [1], > 3000 nM in test [2] (setting [3]) and > 3000 nM in test [2] (setting [4]).

Take `CCNc1ncc2c(n1)N(C)CCN(c1cccc(OC(CCNC)c3ccccn3)c1)C2=O` (stereo not drawn) [Example 193, 2-(ethylamino)-9-methyl-6-(3-(3-(methylamino)-1-(pyridin-2-yl)propoxy)phenyl)-6,7,8,9-tetrahydro-5H-pyrimido[4,5-e][1,4]diazepin-5-one]: the figures for the Ki in test [1], in test [2] (setting [3]) and in test [2] (setting [4]) were > 1000 nM, 500 to 3000 nM and 500 to 3000 nM, respectively.

As to `CCNc1ncc2c(n1)N(C)CCN(c1cccc(OC(CCNC)c3cccnc3)c1)C2=O` (stereo not drawn) [Example 194, 2-(ethylamino)-9-methyl-6-(3-(3-(methylamino)-1-(pyridin-3-yl)propoxy)phenyl)-6,7,8,9-tetrahydro-5H-pyrimido[4,5-e][1,4]diazepin-5-one], the Ki in test [1] was > 1000 nM; in test [2] (setting [3]), 500 to 3000 nM; in test [2] (setting [4]) it was 500 to 3000 nM.

As to `CNCC[C@@H](OCc1cccc(N2CCN(C)c3nc(N)ncc3C2=O)c1)c1ccccc1` [Example 195, (R)-2-amino-9-methyl-6-(3-((3-(methylamino)-1-phenylpropoxy)methyl)phenyl)-6,7,8,9-tetrahydro-5H-pyrimido[4,5-e][1,4]diazepin-5-one], the Ki was 500 to 1000 nM in test [1], 500 to 3000 nM in test [2] (setting [3]) and 100 to 500 nM in test [2] (setting [4]).

As to `CNCC[C@@H](OCc1cccc(N2CCN(C)c3nc(N(C)C)ncc3C2=O)c1)c1ccccc1` [Example 196, (R)-2-(dimethylamino)-9-methyl-6-(3-((3-(methylamino)-1-phenylpropoxy)methyl)phenyl)-6,7,8,9-tetrahydro-5H-pyrimido[4,5-e][1,4]diazepin-5-one], the inhibitory constant (Ki) in test [1] was in the range of 500 to 1000 nM; in test [2] (setting [3]) it was 500 to 3000 nM; in test [2] (setting [4]) it was 500 to 3000 nM.

Consider `CNCC[C@@H](OCc1cccc(N2CCN(C)c3nc(NC)ncc3C2=O)c1)c1ccccc1` [Example 197, (R)-9-methyl-2-(methylamino)-6-(3-((3-(methylamino)-1-phenylpropoxy)methyl)phenyl)-6,7,8,9-tetrahydro-5H-pyrimido[4,5-e][1,4]diazepin-5-one], for which the Ki in test [1] lay in the range of 500 to 1000 nM; in test [2] (setting [3]) it was 500 to 3000 nM; in test [2] (setting [4]), 500 to 3000 nM.

Regarding `CCNc1cc2c(cn1)C(=O)N(c1cccc(OC(CCNC)c3ccccc3)c1)CCN2C` (stereo not drawn) [Example 198, 8-(ethylamino)-1-methyl-4-(3-(3-(methylamino)-1-phenylpropoxy)phenyl)-1,2,3,4-tetrahydro-5H-pyrido[4,3-e][1,4]diazepin-5-one], the Ki in test [1] lay in the range of 100 to 500 nM; in test [2] (setting [3]) it was 500 to 3000 nM; in test [2] (setting [4]), 500 to 3000 nM.

`CCNc1cc2c(cn1)C(=O)N(c1cccc(COC(CCNC)c3ccccc3)c1)CCN2C` (stereo not drawn) [Example 199, 8-(ethylamino)-1-methyl-4-(3-((3-(methylamino)-1-phenylpropoxy)methyl)phenyl)-1,2,3,4-tetrahydro-5H-pyrido[4,3-e][1,4]diazepin-5-one]: the Ki in test [1] was > 1000 nM; in test [2] (setting [3]), 500 to 3000 nM; in test [2] (setting [4]) it was 500 to 3000 nM.

Consider `CCNc1ncc2c(n1)N(C)CCN(Cc1ccc(OC(CNC)c3ccccc3)cc1)C2=O` (stereo not drawn) [Example 201, 2-(ethylamino)-9-methyl-6-(4-(2-(methylamino)-1-phenylethoxy)benzyl)-6,7,8,9-tetrahydro-5H-pyrimido[4,5-e][1,4]diazepin-5-one], for which the Ki in test [1] was < 100 nM; in test [2] (setting [3]), > 3000 nM; in test [2] (setting [4]), > 3000 nM.

Regarding `CCNc1ncc2c(n1)N(C)CCN(c1cccc(CO[C@H](CCNC)c3ccccc3)c1)C2` [Example 203, (R)—N-ethyl-9-methyl-6-(3-((3-(methylamino)-1-phenylpropoxy)methyl)phenyl)-6,7,8,9-tetrahydro-5H-pyrimido[4,5-e][1,4]diazepin-2-amine], the Ki was 500 to 1000 nM in test [1], 500 to 3000 nM in test [2] (setting [3]) and 500 to 3000 nM in test [2] (setting [4]).

Consider `CNCC[C@@H](OCc1cccc(N2CCN(C)c3nc(OC)ncc3C2=O)c1)c1ccccc1` [Example 204, (R)-2-methoxy-9-methyl-6-(3-((3-(methylamino)-1-phenylpropoxy)methyl)phenyl)-6,7,8,9-tetrahydro-5H-pyrimido[4,5-e][1,4]diazepin-5-one], for which the Ki in test [1] was in the range of 100 to 500 nM; in test [2] (setting [3]), 500 to 3000 nM; in test [2] (setting [4]) it was 500 to 3000 nM.

Take `CNCC[C@@H](OCc1cccc(N2CCN(C)c3nc(C)ncc3C2=O)c1)c1ccccc1` [Example 206, (R)-2,9-dimethyl-6-(3-((3-(methylamino)-1-phenylpropoxy)methyl)phenyl)-6,7,8,9-tetrahydro-5H-pyrimido[4,5-e][1,4]diazepin-5-one]: the Ki in test [1] fell in the range of 100 to 500 nM; in test [2] (setting [3]), 100 to 500 nM; in test [2] (setting [4]) it was 500 to 3000 nM.

For `CNCC[C@@H](OCc1cccc(N2CCN(C)c3ncncc3C2=O)c1)c1ccccc1` [Example 207, (R)-9-methyl-6-(3-((3-(methylamino)-1-phenylpropoxy)methyl)phenyl)-6,7,8,9-tetrahydro-5H-pyrimido[4,5-e][1,4]diazepin-5-one], the Ki in test [1] is 500 to 1000 nM; in test [2] (setting [3]), 500 to 3000 nM; in test [2] (setting [4]), 500 to 3000 nM.
